In patent US4352809A, “Method of producing alpha2 antagonism” (Smithkline Corporation, priority 1981, dated 1982):
Counter-ions that a name gives are not always drawn.

Molecular target: T1, alpha2 -adrenoceptor (Cavia porcellus, UniProt Q60474)
T1 construct: The left atrium is removed, dissected free of extraneous tissue and mounted in a 2 ml. superfusion chamber; from tissue; host or cells: isolated left atrium of male guinea pig (prejunctional receptors on sympathetic nerve terminals)
T1 sequence (Q60474 1-464): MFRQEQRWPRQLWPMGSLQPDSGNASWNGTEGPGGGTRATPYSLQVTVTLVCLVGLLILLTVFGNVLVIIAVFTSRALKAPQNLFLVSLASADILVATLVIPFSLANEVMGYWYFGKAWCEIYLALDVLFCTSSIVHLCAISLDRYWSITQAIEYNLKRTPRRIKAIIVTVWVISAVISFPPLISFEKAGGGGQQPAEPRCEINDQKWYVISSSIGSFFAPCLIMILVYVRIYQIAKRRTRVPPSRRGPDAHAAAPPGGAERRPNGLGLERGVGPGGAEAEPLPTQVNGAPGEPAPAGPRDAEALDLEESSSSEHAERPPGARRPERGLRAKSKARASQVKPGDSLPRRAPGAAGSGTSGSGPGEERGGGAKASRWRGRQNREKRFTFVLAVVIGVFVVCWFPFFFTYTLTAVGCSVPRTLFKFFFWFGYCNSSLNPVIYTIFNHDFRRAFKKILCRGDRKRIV
Test: prejunctional alpha2-antagonist activity, isolated superfused guinea pig left atrium (shift of the clonidine concentration-response curve)
Type: cell-based
Conditions: isolated perfused guinea pig left atrium; antagonist concentration that shifts the clonidine log concentration-response curve to the right by a factor of 2; read-out: KB (receptor dissociation constant of the antagonist)
Protocol: Briefly, the heart is removed from a pentobarbitol-anesthetized male guinea pig. The left atrium is removed, dissected free of extraneous tissue and mounted in a 2 ml. superfusion chamber. The tissue is paced at 60 pulse/minute and the sympathetic nerves excited at 6 minute intervals by field stimulation. The response to nerve stimulation is measured as the difference in contractile force between the basal contraction and peak contraction following a nerve stimulation. A concentration-response curve for clonidine (alpha2 -agonist) is prepared by administering increasing concentration of clonidine following each successive stimulation. The tissue is then superfused with the alpha2 -antagonist to be tested for thirty minutes and the clonidine concentration-effect curve was repeated in the presence of antagonist. The receptor dissociation constant of the antagonist (KB) is defined as the antagonist concentration required to shift the log concentration-response curve of the agonist to the right by a factor of 2.

- Kb: 0.22 µM
Structure (SMILES): c1cc2snnc2c2c1CCNC2 [[1,2,3]thiadiazolo[5,4-h]-6,7,8,9-tetrahydroisoquinoline hydrochloride]
